US8809355B2, “GABAA receptor modulators” (Innovationspatent Sverige AB, priority 2008, dated 2014)

How the values were obtained:
benzodiazepine receptor = assay: Displacement of 3H-flumazenil in rat cortical tissue (receptor binding); settings: for Ki: 3H-Flumazenil binding in vitro, rat cortical membranes, mean ± SD of three determinations
Protocol: Affinity of test substances for the benzodiazepine receptor was determined in vitro by displacement of ^3H-flumazenil in rat cortical tissue.

Row | Compound | Ki (benzodiazepine receptor) | melting point | fold difference in potency among the ethylene linked compounds, thiophene over phenyl (benzodiazepine receptor; ratio of Ki values, printed as 14a over 14b) | fold higher affinity of methylene linked thiophene compared to phenyl 16a (benzodiazepine receptor; ratio of Ki values, vs 16a) | affinity for the BZD receptor (in words) (benzodiazepine receptor; discussion of Table 1)
1 | Cc1ccc2[nH]c(=O)n3c(=O)n(-c4ccccc4)nc3c2c1 [Compound 8e, 9-Methyl-2-phenyl-2,6-dihydro[1,2,4]triazolo[4,3-c]quinazoline-3,5-dione] | 0.62 ± 0.13 nM | 330 °C (dec.) | – | – | –
2 | O=c1[nH]c2ccc(Br)cc2c2nn(-c3ccc(Cl)cc3)c(=O)n12 [Compound 8c, 9-Bromo-2-(4-chlorophenyl)-2,6-dihydro[1,2,4]triazolo[4,3-c]quinazoline-3,5-dione] | 0.6 ± 0.26 nM | 387 °C (dec.) | – | – | –
3 | Cc1ccc(-n2nc3c4cc(Br)ccc4[nH]c(=O)n3c2=O)cc1 [Compound 8a, 9-Bromo-2-(4-methylphenyl)-2,6-dihydro[1,2,4]triazolo[4,3-c]quinazoline-3,5-dione] | 0.24 ± 0.07 nM | 369 °C | – | – | –
4 | Cc1ccc(-n2nc3c4cc(C#Cc5ccc(-c6ccccc6)cc5)ccc4[nH]c(=O)n3c2=O)cc1 [Compound 13g, 9-(Biphen-4-ylethynyl)-2-(4-methylphenyl)-2,6-dihydro[1,2,4]triazolo[4,3-c]-quinazoline-3,5-dione] | – | > 350 °C (dec.) | – | – | –
5 | Cc1ccc(-n2nc3c4cc(C#Cc5ccc(Oc6ccccc6)cc5)ccc4[nH]c(=O)n3c2=O)cc1 [Compound 13f, 2-(4-Methylphenyl)-9-[(4-phenoxyphenyl)ethynyl]-2,6-dihydro[1,2,4]triazolo[4,3-c]-quinazoline-3,5-dione] | – | 216 °C | – | – | –
6 | Cc1ccc(-n2nc3c4cc(C#Cc5cccnc5)ccc4[nH]c(=O)n3c2=O)cc1 [Compound 13d, 2-(4-Methylphenyl)-9-(pyridin-3-ylethynyl)-2,6-dihydro[1,2,4]triazolo[4,3-c]-quinazoline-3,5-dione] | – | 339 °C | – | – | –
7 | Cc1ccc(-n2nc3c4cc(C#Cc5ccncc5)ccc4[nH]c(=O)n3c2=O)cc1 [Compound 13e, 2-(4-Methylphenyl)-9-(pyridin-4-ylethynyl)-2,6-dihydro[1,2,4]triazolo[4,3-c]-quinazoline-3,5-dione] | – | 330 °C | – | – | –
8 | O=c1[nH]c2ccc(Br)cc2c2nn(-c3ccccc3F)c(=O)n12 [Compound 8d, 9-Bromo-2-(2-fluorophenyl)-2,6-dihydro[1,2,4]triazolo[4,3-c]quinazoline-3,5-dione] | 0.2 ± 0.07 nM | 347 °C (dec.) | – | – | –
9 | Cc1ccc(-n2nc3c4cc(CCC(=O)O)ccc4[nH]c(=O)n3c2=O)cc1 [Compound 18, 3-[2-(4-Methylphenyl)-3,5-dioxo-2,6-dihydro[1,2,4]triazolo[4,3-c]quinazolin-9-yl]propanoic acid] | 1.4 nM | 275 °C | – | – | –
10 | Cc1ccc(-n2nc3c4cc(C#Cc5cccc(O)c5)ccc4[nH]c(=O)n3c2=O)cc1 [Compound 13i, 9-(3-Hydroxyphenyl)ethynyl-2-(4-methylphenyl)-2,6-dihydro[1,2,4]triazolo[4,3-c]-quinazoline-3,5-dione] | – | 300 °C (dec.) | – | – | –
11 | O=c1[nH]c2ccc(Br)cc2c2nn(-c3ccccc3)c(=O)n12 [Compound 8b, 9-Bromo-2-phenyl-2,6-dihydro[1,2,4]triazolo[4,3-c]quinazoline-3,5-dione] | 0.47 ± 0.09 nM | 405 °C | – | – | –
12 | Cc1ccc(-n2nc3c4cc(C#Cc5ccccc5)ccc4[nH]c(=O)n3c2=O)cc1 [Compound 13a, 2-(4-Methylphenyl)-9-phenylethynyl-2,6-dihydro[1,2,4]triazolo[4,3-c]-quinazoline-3,5-dione] | 40 nM | > 300 °C (dec.) | – | – | –
13 | Cc1ccc(-n2nc3c4cc(C#Cc5ccsc5)ccc4[nH]c(=O)n3c2=O)cc1 [Compound 13b, 2-(4-Methylphenyl)-9-(3-thienylethynyl)-2,6-dihydro[1,2,4]triazolo[4,3-c]-quinazoline-3,5-dione] | – | > 320 °C (dec.) | – | – | –
14 | Cc1ccc(-n2nc3c4cc(C#Cc5ccccn5)ccc4[nH]c(=O)n3c2=O)cc1 [Compound 13c, 2-(4-Methylphenyl)-9-(pyridin-2-ylethynyl)-2,6-dihydro[1,2,4]triazolo[4,3-c]-quinazoline-3,5-dione] | – | 330 °C | – | – | –
15 | CCOC(=O)n1c(=S)[nH]c2ccc(C)cc2c1=O [Compound 3b, Ethyl 6-methyl-4-oxo-2-thioxo-1,4-dihydroquinazoline-3(2H)-carboxylate] | > 30000 nM | 164 °C | – | – | low affinity
16 | Cc1ccc(-n2nc3c4cc(/C=C/C(=O)OCc5ccccc5)ccc4[nH]c(=O)n3c2=O)cc1 [Compound 17, Benzyl (2E)-3-[2-(4-methylphenyl)-3,5-dioxo-2,6-dihydro[1,2,4]triazolo[4,3-c]quinazolin-9-yl]acrylate] | – | 242 °C | – | – | –

Second part, the compound after the results:

Row | Ki (benzodiazepine receptor) | melting point | fold difference in potency among the ethylene linked compounds, thiophene over phenyl (benzodiazepine receptor; ratio of Ki values, printed as 14a over 14b) | fold higher affinity of methylene linked thiophene compared to phenyl 16a (benzodiazepine receptor; ratio of Ki values, vs 16a) | affinity for the BZD receptor (in words) (benzodiazepine receptor; discussion of Table 1) | Compound
17 | 123 ± 12 nM | 213 °C | – | – | – | Cc1ccc(-n2nc3c4cc(CCc5ccc(Oc6ccccc6)cc5)ccc4[nH]c(=O)n3c2=O)cc1 [Compound 14f, 2-(4-Methylphenyl)-9-[2-(4-phenoxyphenyl)ethyl]-2,6-dihydro[1,2,4]triazolo[4,3-o]-quinazoline-3,5-dione]
18 | 0.17 ± 0.03 nM | 294 °C | – | – | – | Cc1ccc(-n2nc3c4cc(CCc5ccncc5)ccc4[nH]c(=O)n3c2=O)cc1 [Compound 14e, 2-(4-Methylphenyl)-9-[2-(4-pyridyl)ethyl]-2,6-dihydro[1,2,4]triazolo[4,3-c]-quinazoline-3,5-dione]
19 | ~1 nM | 299 °C | – | – | – | Cc1ccc(-n2nc3c4cc(Cc5ccccc5)ccc4[nH]c(=O)n3c2=O)cc1 [Compound 16a, 9-Benzyl-2-(4-methylphenyl)-2,6-dihydro[1,2,4]triazolo[4,3-c]quinazoline-3,5-dione]
20 | 6.2 nM | 300 °C (dec.) | – | – | – | Cc1ccc(-n2nc3c4cc(CCc5cccc(O)c5)ccc4[nH]c(=O)n3c2=O)cc1 [Compound 14i, 9-[2-(3-hydroxyphenyl)ethyl]-2-(4-Methylphenyl)-2,6-dihydro[1,2,4]triazolo[4,3-c]-quinazoline-3,5-dione]
21 | 0.2 ± 0.04 nM | 292 °C | – | – | – | Cc1ccc(-n2nc3c4cc(CCc5cccnc5)ccc4[nH]c(=O)n3c2=O)cc1 [Compound 14d, 2-(4-Methylphenyl)-9-[2-(3-pyridyl)ethyl]-2,6-dihydro[1,2,4]triazolo[4,3-c]-quinazoline-3,5-dione]
22 | 1570 ± 150 nM | 345 °C | – | – | – | Cc1ccc(-n2nc3c4cc(CCc5ccc(-c6ccccc6)cc5)ccc4[nH]c(=O)n3c2=O)cc1 [Compound 14g]
23 | 0.94 ± 0.27 nM | 281 °C | – | – | – | Cc1ccc(-n2nc3c4cc(CCc5ccsc5)ccc4[nH]c(=O)n3c2=O)cc1 [Compound 14b, 2-(4-Methylphenyl)-9-[2-(3-thienyl)ethyl]-2,6-dihydro[1,2,4]triazolo[4,3-c]-quinazoline-3,5-dione]
24 | 4 ± 1.2 nM | 303 °C | 4 fold | – | – | Cc1ccc(-n2nc3c4cc(CCc5ccccc5)ccc4[nH]c(=O)n3c2=O)cc1 [Compound 14a, 2-(4-Methylphenyl)-9-(2-phenylethyl)-2,6-dihydro[1,2,4]triazolo[4,3-c]-quinazoline-3,5-dione]
25 | 0.23 ± 0.18 nM | 287 °C | – | 5 fold | – | Cc1ccc(-n2nc3c4cc(Cc5ccsc5)ccc4[nH]c(=O)n3c2=O)cc1 [Compound 16c, 2-(4-Methylphenyl)-9-(3-thienylmethyl)-2,6-dihydro[1,2,4]triazolo[4,3-c]quinazoline-3,5-dione]
26 | 2.1 ± 0.3 nM | 324 °C | – | – | – | Cc1ccc(-n2nc3c4cc(Cc5cccc(F)c5)ccc4[nH]c(=O)n3c2=O)cc1 [Compound 16b, 9-(3-Fluorobenzyl)-2-(4-methylphenyl)-2,6-dihydro[1,2,4]triazolo[4,3-c]quinazoline-3,5-dione]
27 | 0.53 ± 0.11 nM | > 300 °C (dec.) | – | – | – | Cc1ccc(-n2nc3c4cc(CCc5ccccn5)ccc4[nH]c(=O)n3c2=O)cc1 [Compound 14c, 2-(4-Methylphenyl)-9-[2-(2-pyridyl)ethyl]-2,6-dihydro[1,2,4]triazolo[4,3-c]-quinazoline-3,5-dione]
